Two compounds from US10781262B2, “Combination therapy of T cell activating bispecific antigen binding molecules and PD-1 axis binding antagonists” (Hoffmann-La Roche Inc., priority 2014, dated 2020) can be followed below.

Read-outs that look alike come from different tables or passages of the source.

Assay [1] has as its system recombinant CHO K1 stabile expressing human TIM-3. As to the kind of experiment: Cytotoxic activity, CellTiter-Glo Luminescent Cell Viability Assay. Type of assay: cell-based. The settings on record: CHO-K1, 72 h; sandwich format: mouse Fcγ antibodies + mouse Fcγ specific Fabs conjugated with PE 24, 3 days. Background: ATP-based viability assays read luminescence as a measure of living cells.

The test system of the next assay is RPMI-8226 cells. The description is as above. The settings on record: for IC50: Homo sapiens. The procedure: (§1) Treatment ranges from 10 μg/ml to 1 ng/ml in triplicate. All antibodies were used as full length mouse Fcγ versions. For conjugation of the conjugation of the Pseudomonas exotoxin 10 μg/ml of mouse Fcγ fragment specific Fabs conjugated with PE 24 were added and incubated for 3 days at 37° C. Cycloheximide as a known protein synthesis inhibitor in eukaryotes was used as positive control. Viability of treated cells were measured with Promega CellTiter-Glo Luminescent Cell Viability Assay.
(§2) The cytotoxic activity was calculated as follow: Rel. Inhibition [%]=(1−(Esampel−E negative control)/(E positive control−E negative control))*100
(§3) All antibodies were used as full length human IgG1 format including the human Fcgamma part. In this experiment conjugation of the Pseudomonas exotoxin was achieved via human Fcγ fragment specific Fabs conjugated with PE 24 (10 μg/ml) which were added and incubated for 5 days at 37° C.
(§4) The cytotoxic activity was analysed with Promega CellTiter-Glo Luminescent Cell Viability Assay as described above. 1:5 serial dilutions of Fab-fragments of disclosed anti-TIM3 antibodies directly conjugated to PE24 with the highest concentration of 50 μg/ml or appropriate media to untreated cells or non-binding anti-PSMA Fab-PE24 control to untargeted treated cells were incubated with 7.5×10^3 Pfeiffer cells or 2×10^3 RPMI-8226 cells (50 μl/well in […]) for 4 days at 37° C. Treatment ranges from 50 μg/ml to 8 ng/ml in triplicate. Cycloheximide was used as positive control.
(§5) The evaluation of cytotoxic activity of sortase coupled Fab-PE24 constructs of selected disclosed anti-TIM3 antibodies was analysed with Promega CellTiter-Glo Luminescent Cell Viability Assay as described above in Example 28.

For the next assay, the system named is Pfeiffer cells. The description is as above. The settings on record: for IC50: Homo sapiens, Pfeiffer. How it is done: as §1, §2, §3, §4, §5
In assay [2] the test system is primary CD34+ AML cells from relapsed/refractory patients. The experiment in a line: Cytotoxic activity on primary AML cells, CellTiter-Glo. The format is cell-based, human. The settings on record: Fab-PE24 constructs, 3 days; for IC50: Homo sapiens, 72 h. The source says: CD34^+ cells from peripheral blood of relapsed/refractory patients were obtained from AllCells, LLC, Alameda, Calif. […] (see FIG. 31).
(§6) Cycloheximide was used as positive control.

The next assay relates to CMK. The experiment in a line: Cytotoxic activity, CellTiter-Glo Luminescent Cell Viability Assay. The settings on record: Fab-PE24 constructs. The format is cell-based.
Text: as §6

The next assay relates to TF-1. The description is as above. The format is cell-based. The settings on record: Fab-PE24 constructs.
Text: as §6

For another assay, the system named is MOLM-13. The assay is described as above. The format is cell-based. The settings on record: Fab-PE24 constructs.
Text: as §6

A further assay has as its system Karpas-299. The description is as above. The format is cell-based. The settings on record: Fab-PE24 constructs.
Text: as §6

Another assay has as its target human FolR1 (Homo sapiens, UniProt P15328). The settings on record: IgG injected for 60 seconds at 500 nM. How it is done:
(§7) Binding of FolR1 binders as IgG or in the T-cell bispecific format to different recombinant folate receptors (human FolR1, 2 and 3, murine FolR1 and cynomolgus FolR1; all as Fc fusions) was assessed by surface plasmon resonance (SPR). All SPR experiments were performed on a Biacore T200 at 25° C. with HBS-EP as running buffer (0.01 M HEPES pH 7.4, 0.15 M NaCl, 3 mM EDTA, 0.005% Surfactant P20, Biacore, Freiburg/Germany).
(§8) First the anti-FolR1 IgGs were analyzed by single injections (Table 1) to characterize their crossreactivity (to human, murine and cyno FolR1) and specificity (to human FolR1, human FolR2, human FolR3). Recombinant biotinylated monomeric Fc fusions of human, cynomolgus and murine Folate Receptor 1 (FolR1-Fc) or human Folate Receptor 2 and 3 (FolR2-Fc, FolR3-Fc) were directly coupled on a SA chip using the standard coupling instruction (Biacore, Freiburg/Germany). The immobilization level was about 300-400 RU. The IgGs were injected for 60 seconds at a concentration of 500 nM.

In another assay the target is murine FolR1 (Mus musculus, UniProt P35846). The settings on record: IgG injected for 60 seconds at 500 nM. The procedure: as §7, §8
Sequence of murine FolR1 (P35846 with tags, fused parts or gaps): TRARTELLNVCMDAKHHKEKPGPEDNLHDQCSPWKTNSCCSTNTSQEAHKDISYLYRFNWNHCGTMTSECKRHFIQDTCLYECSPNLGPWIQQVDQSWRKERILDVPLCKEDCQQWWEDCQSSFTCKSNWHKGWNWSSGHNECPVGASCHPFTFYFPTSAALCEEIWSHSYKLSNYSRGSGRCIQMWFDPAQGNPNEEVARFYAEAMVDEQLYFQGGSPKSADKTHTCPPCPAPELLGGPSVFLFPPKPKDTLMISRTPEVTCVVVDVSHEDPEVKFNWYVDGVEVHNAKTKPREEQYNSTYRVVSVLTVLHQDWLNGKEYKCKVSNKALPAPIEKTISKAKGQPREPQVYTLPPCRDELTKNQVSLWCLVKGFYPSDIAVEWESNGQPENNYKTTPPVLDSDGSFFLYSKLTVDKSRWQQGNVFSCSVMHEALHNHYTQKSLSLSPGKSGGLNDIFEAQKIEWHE
Sequence of murine FolR1 (as listed by the source partner): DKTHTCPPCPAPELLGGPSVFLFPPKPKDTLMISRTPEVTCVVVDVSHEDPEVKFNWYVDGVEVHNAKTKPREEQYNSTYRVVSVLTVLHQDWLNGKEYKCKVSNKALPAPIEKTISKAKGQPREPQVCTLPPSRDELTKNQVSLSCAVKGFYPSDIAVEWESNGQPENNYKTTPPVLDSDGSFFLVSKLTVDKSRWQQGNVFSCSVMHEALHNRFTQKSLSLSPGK
The target in a further assay is human FolR2 (Homo sapiens, UniProt P14207). The settings on record: IgG injected for 60 seconds at 500 nM. The procedure:
as §7, §8

A further assay relates to cynomolgus FolR1. The settings on record: IgG injected for 60 seconds at 500 nM. How it is done:
as §7, §8

A further assay concerns the target human FolR3 (Homo sapiens, UniProt P41439). The settings on record: IgG injected for 60 seconds at 500 nM. How it is done:
as §7, §8

For assay [3], the target named is T1, human Folate Receptor 1 (FolR1-Fc) (Homo sapiens, UniProt P15328).
T1 construct: the extracellular domain of the antigen linked to the hinge region of Fc-knob; made in house; host or cells: HEK293 EBNA
T1 sequence (P15328 with tags, fused parts or gaps): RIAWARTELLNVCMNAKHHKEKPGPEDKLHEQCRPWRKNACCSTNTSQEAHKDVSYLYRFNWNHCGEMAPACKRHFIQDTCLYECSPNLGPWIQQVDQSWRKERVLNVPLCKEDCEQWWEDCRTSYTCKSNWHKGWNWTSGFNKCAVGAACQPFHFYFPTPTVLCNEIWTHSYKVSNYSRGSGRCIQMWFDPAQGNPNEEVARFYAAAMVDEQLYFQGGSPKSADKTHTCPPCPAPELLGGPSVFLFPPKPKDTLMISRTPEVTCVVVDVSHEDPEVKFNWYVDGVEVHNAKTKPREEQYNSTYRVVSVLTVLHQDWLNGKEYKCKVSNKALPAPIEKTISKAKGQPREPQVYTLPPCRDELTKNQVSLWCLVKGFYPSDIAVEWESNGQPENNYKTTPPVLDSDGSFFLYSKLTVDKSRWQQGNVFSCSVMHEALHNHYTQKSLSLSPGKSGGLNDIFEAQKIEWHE
T1 sequence (P01857 104-330 isoform P01857-1 Y232C/T249S/L251A/Y290V/H318R/Y319F partner): as the sequence (as listed by the source partner) above
The experiment in a line: SPR avidity to Folate Receptor 1 (bivalent binding). The settings on record: bivalent binding (avidity), ligand huFolR1. The source says:
The immobilization level was about 300-400 RU. […] The dissociation was monitored for 600 seconds.

Assay [4] deals with human Folate Receptor 1 Fc fusion (Homo sapiens, UniProt P15328). The settings on record: monovalent binding (affinity), analyte huFolR1. The procedure:
as §7
(§9) For affinity measurement, direct coupling of around 6000-7000 resonance units (RU) of the anti-human Fab specific antibody (Fab capture kit, GE Healthcare) was performed on a CM5 chip at pH 5.0 using the standard amine coupling kit (GE Healthcare). Anti-FolR1 IgGs or T cell bispecifics were captured at 20 nM with a flow rate of 10 μl/min for 20 or 40 sec, the reference flow cell was left without capture. Dilution series (6.17 to 500 nM or 12.35 to 3000 nM) of human or cyno Folate Receptor 1 Fc fusion were passed on all flow cells at 30 μl/min for 120 or 240 sec to record the association phase. The dissociation phase was monitored for 240 s and triggered by switching from the sample solution to HBS-EP. The chip surface was regenerated after every cycle using a double injection of 60 sec 10 mM Glycine-HCl pH 2.1 or pH 1.5. Bulk refractive index differences were corrected for by subtracting the response obtained on the reference flow cell 1. The affinity constants for the interactions were derived from the rate constants by fitting to a 1:1 Langmuir binding using the Bia Evaluation software (GE Healthcare).

Assay [5] addresses cyno Folate Receptor 1 Fc fusion. The settings on record: monovalent binding (affinity), analyte cyFolR1. How it is done: as §7, §9
For assay [6], the system named is cynomolgus Folate Receptor 1 (FolR1-Fc). The settings on record: bivalent binding (avidity), ligand cyFolR1. The procedure: as §7
Sequence of cynomolgus Folate Receptor 1 (FolR1-Fc) (as listed by the source): as the sequence (P15328 with tags, fused parts or gaps) above, with I2T, W4R, R37K, A146P, H171Y counted along it
Sequence of cynomolgus Folate Receptor 1 (FolR1-Fc) (as listed by the source partner): as the sequence (as listed by the source partner) above
The avidity of the interaction between the anti-FolR1 IgGs or T cell bispecifics and the recombinant folate receptors was determined as described below (Table 9). Recombinant biotinylated monomeric Fc fusions of human, cynomolgus and murine Folate Receptor 1 (FolR1-Fc) were directly coupled on a SA chip using the standard coupling instruction (Biacore, Freiburg/Germany). The immobilization level was about 300-400 RU. The anti-FolR1 IgGs or T cell bispecifics were passed at a concentration range from 2.1 to 500 nM with a flow of 30 μL/minutes through the flow cells over 180 seconds. The dissociation was monitored for 600 seconds. […] The binding curves resulting from the bivalent binding of the IgGs or T cell bispecifics were approximated to a 1:1 Langmuir binding and fitted with that model (which is not correct, but gives an idea of the avidity). The apparent avidity constants for the interactions were derived from the rate constants of the fitting using the Bia Evaluation software (GE Healthcare).

The mark [7] stands for this setting: human IgG1 format + human Fcγ specific Fabs conjugated with PE 24, 5 days.
The mark [8] stands for this setting: sortase coupled Fab-PE24 constructs.
Where [9] appears, read: Fab-PE24 construct vs. total IgG-Amatoxin conjugate.

Sequence of cyno Folate Receptor 1 Fc fusion (as listed by the source): as the sequence (P15328 with tags, fused parts or gaps) above, with I2T, W4R, R37K, A146P, H171Y counted along it
Sequence of cyno Folate Receptor 1 Fc fusion (P01857 104-330 isoform P01857-1 Y232C/T249S/L251A/Y290V/H318R/Y319F partner): as the sequence (as listed by the source partner) above
Sequence of human Folate Receptor 1 Fc fusion (P15328 with tags, fused parts or gaps): as the sequence (P15328 with tags, fused parts or gaps) above
Sequence of human Folate Receptor 1 Fc fusion (P01857 104-330 isoform P01857-1 Y232C/T249S/L251A/Y290V/H318R/Y319F partner): as the sequence (as listed by the source partner) above
Sequence of cynomolgus FolR1 (as listed by the source): as the sequence (P15328 with tags, fused parts or gaps) above, with I2T, W4R, R37K, A146P, H171Y counted along it
Sequence of human FolR2 (P14207 with tags, fused parts or gaps): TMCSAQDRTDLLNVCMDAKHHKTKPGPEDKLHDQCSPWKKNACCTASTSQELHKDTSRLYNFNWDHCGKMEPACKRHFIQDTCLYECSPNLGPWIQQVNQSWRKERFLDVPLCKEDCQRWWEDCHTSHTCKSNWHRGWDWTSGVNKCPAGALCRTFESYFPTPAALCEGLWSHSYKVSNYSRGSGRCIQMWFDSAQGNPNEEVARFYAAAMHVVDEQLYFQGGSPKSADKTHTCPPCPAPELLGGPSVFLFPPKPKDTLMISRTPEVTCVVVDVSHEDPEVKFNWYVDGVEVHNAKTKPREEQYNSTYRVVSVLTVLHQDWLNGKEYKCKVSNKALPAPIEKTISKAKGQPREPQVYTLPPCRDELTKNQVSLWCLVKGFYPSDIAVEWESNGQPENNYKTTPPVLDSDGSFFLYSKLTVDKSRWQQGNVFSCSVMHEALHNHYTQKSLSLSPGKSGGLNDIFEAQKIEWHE
Sequence of human FolR2 (P01857 104-330 isoform P01857-1 Y232C/T249S/L251A/Y290V/H318R/Y319F partner): as the sequence (as listed by the source partner) above
Sequence of human FolR1 (P15328 with tags, fused parts or gaps): as the sequence (P15328 with tags, fused parts or gaps) above
Sequence of human FolR1 (P01857 104-330 isoform P01857-1 Y232C/T249S/L251A/Y290V/H318R/Y319F partner): as the sequence (as listed by the source partner) above
Sequence of human FolR3 (P41439 with tags, fused parts or gaps): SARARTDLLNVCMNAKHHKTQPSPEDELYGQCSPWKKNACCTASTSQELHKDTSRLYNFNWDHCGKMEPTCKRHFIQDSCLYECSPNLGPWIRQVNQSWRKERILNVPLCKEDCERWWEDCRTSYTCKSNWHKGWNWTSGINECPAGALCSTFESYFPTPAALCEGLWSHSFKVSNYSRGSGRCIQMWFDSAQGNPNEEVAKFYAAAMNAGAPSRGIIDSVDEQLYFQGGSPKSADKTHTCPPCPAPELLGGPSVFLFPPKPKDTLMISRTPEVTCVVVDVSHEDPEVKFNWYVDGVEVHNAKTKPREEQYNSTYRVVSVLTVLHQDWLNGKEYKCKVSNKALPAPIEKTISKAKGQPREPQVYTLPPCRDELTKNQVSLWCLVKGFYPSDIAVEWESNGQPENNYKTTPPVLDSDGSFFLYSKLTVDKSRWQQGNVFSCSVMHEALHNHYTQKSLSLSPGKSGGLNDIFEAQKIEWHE
Sequence of human FolR3 (P01857 104-330 isoform P01857-1 Y232C/T249S/L251A/Y290V/H318R/Y319F partner): as the sequence (as listed by the source partner) above

One may read the IC50 as the concentration at which inhibition is half-maximal. In the case of `C[C@@H]1C[C@@H]([C@H](O)CC2CC(=O)NC(=O)C2)C(=O)[C@@H](C)C1` [Cycloheximide], the IC50 in assay [1] turned out to be 135 nM; in the assay with RPMI-8226 cells (RPMI-8226), 153 nM; in the assay with RPMI-8226 cells (RPMI-8226, 96 h), 281 nM; in the assay with Pfeiffer cells (72 h, sandwich format: mouse Fcγ antibodies + mouse Fcγ specific Fabs conjugated with PE 24, 3 days) it was 181 nM; with Pfeiffer cells (120 h, read-out: Rel. IC50, human IgG1 format + human Fcγ specific Fabs conjugated with PE 24, 5 days), 271 nM; in the assay on Pfeiffer cells (setting [9]) it was 163 nM. The IC50 amounted to 271 nM with Pfeiffer cells (setting [8]); 212 nM in assay [2] (D1, AML CD34+ PB0136 cells); 262 nM in assay [2] (D2, AML CD34+ PB0142 cells); 121 nM in [2] (D3, AML CD34+ PB0135 cells); 208 nM in assay [2] (D4, AML CD34+ PB0193 cells); 149 nM with CMK (Homo sapiens, CMK). Besides, the IC50 in the assay on TF-1 (Homo sapiens, TF-1) is 207 nM; with MOLM-13 (Homo sapiens, MOLM-13) it was 156 nM; with Karpas-299 (Homo sapiens, KARPAS-299), 113 nM. For the same compound, the Max. killing was 100 [%] with RPMI-8226 cells (Fab-PE24 constructs, 4 days); 100 [%] in the assay with RPMI-8226 cells (setting [7]); 100 [%] in the assay with RPMI-8226 cells (setting [8]); 100 [%] with Pfeiffer cells (setting [9]); 100 [%] in the assay with Pfeiffer cells (setting [7]); 100 [%] in the assay on Pfeiffer cells (setting [8]). For the same compound, the Max. killing was 100 [%] in [2] (D1, AML CD34+ PB0136 cells); 100 [%] in assay [2] (D2, AML CD34+ PB0142 cells); 100 [%] in assay [2] (D3, AML CD34+ PB0135 cells); 100 [%] in [2] (D4, AML CD34+ PB0193 cells); 100 [%] in the assay with CMK; 100 [%] with TF-1. Further, the Max. killing in the assay with MOLM-13 and in the assay on Karpas-299 was 100 [%] throughout.

With Farletuzumab [reference compound], at human FolR1, the “Binding to huFolR1” value is recorded as “+”. Further, at murine FolR1, the “Binding to muFolR1” value is “−”. The “Binding to huFolR2” value on human FolR2 is recorded as “−”. The “Binding to cyFolR1” value in the assay on cynomolgus FolR1 is “+”. In addition, the “Binding to huFolR3” value at human FolR3 was “−”. The ka in [3] worked out at 1.23e+06 M⁻¹ s⁻¹; in assay [4] it was 417000 M⁻¹ s⁻¹; in [5], 553000 M⁻¹ s⁻¹; in assay [6], 1.33e+06 M⁻¹ s⁻¹. Besides, the kd in assay [3] was found to be 0.0009 s⁻¹; in assay [4], 0.023 s⁻¹; in [5] it was 0.0373 s⁻¹; in [6], 0.000868 s⁻¹. The Kd worked out at 67.3 nM in assay [5] and 0.65 nM in [6] (read-out: Apparent KD, approximated 1:1 Langmuir fit).
